The target of this experiment is human IRAK4 (Homo sapiens (Human), UniProt Q9NWZ3). The experiment is described as follows: IRAK4 kinase inhibition, Transcreener fluorescence polarization ADP assay. Type of experiment: biochemical. The conditions noted are these: recombinant full-length His6-IRAK4; 125 uM ATP; 90 min; Ki computed using ATP Km 642 uM. The method, then: Compounds were assayed for inhibition of human IRAK4 and IRAK1 catalytic activity using recombinant enzyme produced from insect cells. Full-length IRAK4 protein, carrying an N-terminal His6-Tag, was obtained from Life Technologies (Carlsbad, Calif., USA). The IRAK1 construct was produced internally and was comprised of IRAK1 residues Arg194 to Ser712, preceded by an NH2-terminal His6 tag and the coding sequence for glutathione-S-transferase.
Chain of human IRAK4 (Q9NWZ3 whole entry, the tested form may be a part): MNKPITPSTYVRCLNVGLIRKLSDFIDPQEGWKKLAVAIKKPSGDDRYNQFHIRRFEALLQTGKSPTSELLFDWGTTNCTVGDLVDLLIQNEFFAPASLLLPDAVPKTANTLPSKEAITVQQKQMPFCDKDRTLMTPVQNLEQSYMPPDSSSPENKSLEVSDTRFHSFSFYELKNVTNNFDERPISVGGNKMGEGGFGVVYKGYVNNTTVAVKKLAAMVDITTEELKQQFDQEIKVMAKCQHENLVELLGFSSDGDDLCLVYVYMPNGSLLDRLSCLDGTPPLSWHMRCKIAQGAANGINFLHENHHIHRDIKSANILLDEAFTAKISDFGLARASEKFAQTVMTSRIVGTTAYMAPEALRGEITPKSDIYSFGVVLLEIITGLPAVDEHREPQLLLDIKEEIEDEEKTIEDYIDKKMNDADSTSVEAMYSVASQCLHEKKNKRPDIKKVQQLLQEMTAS
(Fluorescence polarisation rises when a labelled molecule tumbles more slowly, as on binding a larger partner.)
Usually Ki stands for a dissociation constant, usually derived from enzyme kinetics or from competition with a known ligand. For `CC(C)(O)[C@@]1(C)Cc2cc(NC(=O)c3cnn4cccnc34)c(N3CCN(CC(F)F)CC3)cc2O1` [Example 360, (R)—N-(6-(4-(2,2-Difluoroethyl)piperazin-1-yl)-2-(2-hydroxypropan-2-yl)-2-methyl-2,3-dihydrobenzofuran-5-yl)pyrazolo[1,5-a]pyrimidine-3-carboxamide], the Ki was 6.3 nM.

In the case of `CC(C)(O)[C@]1(C)Cc2cc(NC(=O)c3cnn4cccnc34)c(N3CCN(CC(F)F)CC3)cc2O1` [Example 361, (S)—N-(6-(4-(2,2-Difluoroethyl)piperazin-1-yl)-2-(2-hydroxypropan-2-yl)-2-methyl-2,3-dihydrobenzofuran-5-yl)pyrazolo[1,5-a]pyrimidine-3-carboxamide], the Ki is 9.2 nM.

For `CC1(COC(F)F)Cc2cc(NC(=O)c3cnn4cccnc34)c(N3CCN(CC(F)F)CC3)cc2O1` (centres unmarked) [Example 362, N-(6-(4-(2,2-difluoroethyl)piperazin-1-yl)-2-((difluoromethoxy)methyl)-2-methyl-2,3-dihydrobenzofuran-5-yl)pyrazolo[1,5-a]pyrimidine-3-carboxamide], the Ki was found to be 6.7 nM.

With `CC(C)(O)C1(C)Cc2cc(NC(=O)c3cnn4cccnc34)c(N3CCC(CO)CC3)cc2O1` (centres unmarked) [Example 363, N-(6-(4-(hydroxymethyl)piperidin-1-yl)-2-(2-hydroxypropan-2-yl)-2-methyl-2,3-dihydrobenzofuran-5-yl)pyrazolo[1,5-a]pyrimidine-3-carboxamide], the Ki turned out to be 5.3 nM.

For the compound `CC1(C(F)F)Cc2cc(NC(=O)c3cnn4cccnc34)c(N3CCN(CC(F)F)CC3)cc2O1` (centres unmarked) [Example 364, N-(6-(4-(2,2-Difluoroethyl)piperazin-1-yl)-2-(difluoromethyl)-2-methyl-2,3-dihydrobenzofuran-5-yl)pyrazolo[1,5-a]pyrimidine-3-carboxamide], the Ki was determined as 3.7 nM.

As for `C[C@]1(CC(F)F)Cc2cc(NC(=O)c3cnn4cccnc34)c(N3CCOCC3)cc2O1` [Example 367, N-[(2R)-2-(2,2-difluoroethyl)-2-methyl-6-morpholino-3H-benzofuran-5-yl]pyrazolo[1,5-a]pyrimidine-3-carboxamide], the Ki is 5.8 nM.

On to `O=C(Nc1cc2c(cc1N1CCOCC1)OC1(CCN(CCO)CC1)C2)c1cnn2cccnc12` [Example 369, N-[1′-(2-Hydroxyethyl)-6-morpholino-spiro[3H-benzofuran-2,4′-piperidine]-5-yl]pyrazolo[1,5-a]pyrimidine-3-carboxamide], for which the inhibition constant (Ki) was determined as 6.8 nM.

As to `O=C(Nc1cc2c(cc1N1CCOCC1)OC1(CCN(CC(F)F)CC1)C2)c1cnn2cccnc12` [Example 370, N-[1′-(2,2-difluoroethyl)-6-morpholino-spiro[3H-benzofuran-2,4′-piperidine]-5-yl]pyrazolo[1,5-a]pyrimidine-3-carboxamide], the Ki worked out at 5.8 nM.

As for `CN1CCC2(CC1)Cc1cc(NC(=O)c3cnn4cccnc34)c(N3CCC(CO)CC3)cc1O2` [Example 371, N-(6-(4-(Hydroxymethyl)piperidin-1-yl)-1′-methyl-3H-spiro[benzofuran-2,4′-piperidin]-5-yl)pyrazolo[1,5-a]pyrimidine-3-carboxamide], the inhibition constant Ki amounted to 1.4 nM.

With `CC(C)N1CCC2(CC1)Cc1cc(NC(=O)c3cnn4cccnc34)c(N3CCOCC3)cc1O2` [Example 372, N-(1′-isopropyl-6-morpholino-spiro[3H-benzofuran-2,4′-piperidine]-5-yl)pyrazolo[1,5-a]pyrimidine-3-carboxamide], the Ki came to 13 nM.

As for `CN1CCC2(CC1)Cc1cc(NC(=O)c3cnn4cccnc34)c(N3CCN(CC(N)=O)CC3)cc1O2` [Example 373, N-(6-(4-(2-Amino-2-oxoethyl)piperazin-1-yl)-1′-methyl-3H-spiro[benzofuran-2,4′-piperidin]-5-yl)pyrazolo[1,5-a]pyrimidine-3-carboxamide], the Ki is 1.7 nM.

For the origin of these results see patent US10988478B1, “Pyrazolo[1,5a]pyrimidine derivatives as IRAK4 modulators” (Genentech, Inc., priority 2015, dated 2021).
